Test results: patent publication US8318898B2, “Synthetic peptides for use as inhibitors of neurotransmitter secretion and as inducers of cellular relaxation” (Universite de Lausanne, priority 2005, dated 2012)

What was measured:
PC12 cells = type: cell-based, rat
Method: […]. Very little toxicity was present at 24 hours, and cytotoxicity at 48 hours was only slightly greater than at 24 hours. Cytotoxicity generally dipped to approximately 90% live cells when peptides were administered at 500 μM.

Recombinant furin = Recombinant furin (Homo sapiens, UniProt P09958); assay: biochemical; type: biochemical
Recombinant furin, sequence (P09958 108-794): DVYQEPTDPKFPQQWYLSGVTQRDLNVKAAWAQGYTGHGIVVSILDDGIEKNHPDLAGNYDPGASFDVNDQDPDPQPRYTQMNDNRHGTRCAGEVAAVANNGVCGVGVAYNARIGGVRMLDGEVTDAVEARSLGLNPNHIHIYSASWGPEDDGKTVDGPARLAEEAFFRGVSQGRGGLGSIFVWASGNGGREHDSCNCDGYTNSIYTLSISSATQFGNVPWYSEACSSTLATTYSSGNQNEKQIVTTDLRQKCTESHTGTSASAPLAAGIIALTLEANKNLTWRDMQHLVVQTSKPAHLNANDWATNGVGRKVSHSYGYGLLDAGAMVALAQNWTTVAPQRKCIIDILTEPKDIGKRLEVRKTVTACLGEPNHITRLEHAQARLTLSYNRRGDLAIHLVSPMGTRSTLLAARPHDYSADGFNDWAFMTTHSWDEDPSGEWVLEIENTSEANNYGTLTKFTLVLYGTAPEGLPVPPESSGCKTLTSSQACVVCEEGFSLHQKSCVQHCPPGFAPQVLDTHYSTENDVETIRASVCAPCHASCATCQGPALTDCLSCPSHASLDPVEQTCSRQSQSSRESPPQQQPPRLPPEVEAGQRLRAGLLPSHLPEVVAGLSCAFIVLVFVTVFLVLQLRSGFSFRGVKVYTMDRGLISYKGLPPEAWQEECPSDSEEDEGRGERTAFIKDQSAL
Method: To determine if the peptides described herein have an effect on the activity of PC enzymes which are involved in a condition or disorder such as fibrosis, the effect of the peptides on furin activity in vitro was measured as percent inhibition of cleavage of the furin substrate fluorogenic t-butyloxycarbonyl (Boc)-RVRR-7-amino-4-methylcoumarin (MCA).
All in vitro enzyme studies were performed at room temperature in a final volume of 50-100 μl in 96-well flat-bottom black plates. The buffer consisted of 100 mM HEPES, 1 mM CaCl2, 0.5% TritonX-100, and 1 mM 2-β-mercaptoethanol pH 7.5. Assays were performed using Boc-RVRR-MCA as fluorogenic substrate at 100 μM. Recombinant furin (0.8 U of activity) was incubated with Boc-RVRR-MCA in the presence or absence of varying concentrations of synthetic peptides D-9Rac/am (SEQ ID NO. 15), L-Bel1 (SEQ ID NO. 3), or L-9K (SEQ ID NO. 6). One unit of activity is defined as the amount of furin that can release 1 μmol of MCA from the fluorogenic Boc-RVRR-MCA per min at 30° C. The release of highly fluorescent 7-amino 4-methyl coumarin (MCA) from the Boc-RVRR-MCA was monitored by a spectrofluorometer instrument at excitation and emission wavelengths of 370 nm/460 nm. […]

PC-12 cells [1] = assay: Subcellular localization of FITC-labeled peptide and colocalization with furin, confocal microscopy; type: cell-based, rat; conditions: 1 and 100 μM
Source text: Two peptides of interest were FITC-labeled (Anaspec) to follow their interiorization on PC-12 cells (rat pheochromocytoma cells): L-Bel1 (SEQ ID NO. 3) and D-9Rac/am (SEQ ID NO. 15). After observation of L-Bel1-FITC conjugate interiorization, a monoclonal antibody for furin endoprotease was used for colocalization studies by confocal microscopy analysis.
PC-12 cells were resuspended in Dulbecco's modified Eagle's medium (DMEM) high glucose (Gibco BRL, Life Technologies) containing 6% decomplemented horse serum, 6% decomplemented fetal bovine serum, supplemented with 25 U/ml penicillin-streptomycin-I-glutamine. Cells were seeded at 3×10^4 cells/well (200 μl), on 8-well microscope slide chamber (BD Biosciences), previously coated with collagen I (Roche Diagnostics) solution (0.0007%). After an overnight incubation at 37° C. in 5% CO2, cells were washed twice using fresh medium without serum, and then incubated in the presence or absence of the peptide, for the indicated time. […]
The fluorescent images were obtained by confocal laser scanning microscope (Zeiss LSM 510) with lasers of argon (488 nm), helium-neon 1 (543 nm), and enterprise (364 nm); connected to an inverted fluorescence microscope (Zeiss Axiovert 100 M), equipped with a 63×/1.4 PL APO chromate objective lens.

PC-12 cells [2] = assay: Actin cytoskeleton organization, phalloidin-TRITC staining; type: cell-based, rat
Method: Slides with PC-12 cells were prepared as stated previously for localization studies. Briefly, cells were exposed to FITC-labeled or unlabeled peptides, at various concentrations, for 30 minutes, fixed and then permeabilized. Subsequently, F-actin was fluorescently labeled with phalloidin-Tetramethyl Rhodamine Iso-Thiocyanate (TRITC) (Sigma Aldrich) conjugate, diluted on saponin buffer (0.25 μg/ml), and nuclear staining with DAPI dihydrochloride (Sigma Aldrich) (0.02 μg/ml), at room temperature for maximum 30 minutes. Finally, slides were mounted and sealed, and stored at 4° C. protected from light. The effect of the peptides to actin polymerization was analyzed by confocal microscopy, as described before.

[3] = tested on: smooth muscle cell line (A7r5); assay: Cell contraction/relaxation on silicon sheet, smooth muscle cells; type: cell-based
Method: Lung biopsy was obtained from a Sprague Dawley rat, divided in small tissue slices, placed in culture dishes, and maintained then in organ culture in Dulbecco's modified Eagle's medium (GibcoBRL, Life Technologie) containing 10% decomplemented fetal bovine serum (FBS) supplemented with 100 U/ml penicillin, 100 μg/ml streptomycin, 4 mM I-glutamine, at 37° C., in 5% CO2. Cells were maintained during 2-3 weeks (2-8 passages), replacing medium frequently. At confluence, cells were detached from the culture dish with 0.125% trypsin-EDTA mixture (Sigma) for 10 minutes at 37° C., resuspended in complete medium, and seeded over silicon-coated tissue culture dishes at 3.5×10^3 cells/cm^2. One to two days after, cells were treated with the appropriate peptide at 10 or 50 μM, and peptide-induced cell contraction/relaxation effect followed for 1-3 hours by live videomicroscopy. A smooth muscle cell line (A7r5) kept in similar conditions was also used to follow the peptide-induced effects on these cells grown over silicon sheet.
Live videomicroscopy was performed under controlled temperature and CO2 conditions using a Zeiss Axiovert 200M (Zeiss, Oberkochem, Germany), equipped with a spinning disk Nipkow confocal head (Yokogawa CSU10), Photometrics CoolSNAP-HQ CCD camera and Metamorph 6.0 acquisition software (Visitron Systems, Puchheim, Germany). […]

lung fibroblasts = assay: Stressed collagen lattice contraction assay; type: cell-based, rat; conditions: peptide 60 minutes before gel release; compared to control gels and L-9K treated gels; preliminary

N=C(N)NCCC[C@H](NC(=O)CNC(=O)[C@H](Cc1ccc(O)cc1)NC(=O)CN)C(=O)N[C@@H](CCCCN)C(=O)N[C@@H](CCCCN)C(=O)N[C@@H](CCCNC(=N)N)C(=O)N[C@@H](CCCNC(=N)N)C(=O)N[C@@H](CCC(N)=O)C(=O)N[C@@H](CCCNC(=N)N)C(=O)N[C@@H](CCCNC(=N)N)C(=O)N[C@@H](CCCNC(=N)N)C(=O)NCC(=O)O [L-Tat]
cytotoxicity (MTT) (PC12 cells): no marked cytotoxicity
concentration for complete blockade of cleavage of Boc-RVRR-MCA by furin (Recombinant furin): 3.5 µM
inhibition of in vitro furin activity (in words) (Recombinant furin; Boc-RVRR-MCA 100 μM as substrate): inhibited to completion
Ki (Recombinant furin; furin, Boc-RVRR-MCA substrate, read-out: Ki(app)): 370 nM
internalization of FITC-labeled peptide (PC-12 cells [1]): crosses the basal membrane
effect on actin content and organization at higher concentration (PC-12 cells [2]; 100 μM): almost lost
effect on actin content and organization (PC-12 cells [2]; 2 to 10 μM, 30 minutes, labeled or unlabeled): decreased actin content and organization
relaxing effect on smooth muscle cells [3]: same effect
myofibroblast-mediated collagen gel contraction (lung fibroblasts): decrease
